What all share (test): growth of human tumour cells (NCI), 48 h
Test [1] concerns UACC-62 melanoma.
In test [2] the test system is RXF 393 renal.
In test [3] the test system is SNB-75 CNS.
Test [4] concerns NCI-H522 lung.
The subject of test [5] is SNB-19 CNS.
Test [6] concerns LOX IMVI melanoma.
In test [7] the test system is A549 NSCLC.
In test [8] the test system is SK-MEL-2 melanoma.
The test system of test [9] is MDA-MB-231 breast.

Several values for one entry are separate records, joined by “and”; a condition that tells them apart may be missing. Equal values may be shown once.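 Protocol summary: plate cells (96-well), add compound at 5 concentrations, incubate 48 h, interpolate endpoints linearly. GI50 is the concentration that inhibits growth by half. TGI: total growth inhibition.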

As to `O=C1CCCC[C@H]1[C@H]1CCC[C@@H]([C@H]2CCCCC2=O)C1=O`, the TGI in test [1], in test [2], in [3], in [4], in [5] and in [6] was above 100 µM in each case. Also, the TGI in test [7] and in test [8] was above 100 µM throughout.

For `O=C1OC2CCCC[C@@H]2C2C[C@]34CCCCC3[C@@H](C(=O)O4)C12` (stereo not given in full), the TGI in test [1], in test [2], in [3], in [4], in test [5] and in [6] was above 100 µM in each case. Also, the TGI in [7] and in [8] was above 100 µM in each case.

As to `CCN(CC)c1ccc(N=Nc2ccc(-c3nc4ccc[n+](C)c4s3)cc2)cc1`, the TGI in test [1] amounted to 26.6 µM; in test [3], 27.5 µM; in test [4], 28.5 µM; in test [5], 25.1 µM; in test [6], 15.8 µM; in [7], 26.3 µM. The molecule also came in with a TGI in test [8] of 25.5 µM.

`C=CC/C=C/C/C=C/CCCCCCCc1cccc(O)c1C(=O)O`: the TGI in test [1], in test [3], in test [4], in [5], in test [6] and in [7] was above 100 µM each time. In test [8], this molecule gave a TGI above 100 µM.

`COc1cc2[nH]c(C(=O)c3cc(OC)c(OC)c(OC)c3)c(N)c2cc1C#CC1CC1`: the GI50 was 20.1 µM in test [1]; 3.9 µM in test [9]; 1.02 µM in [3]; 5.85 µM in test [5]; 4.33 µM in [6]; 6.65 µM in test [7]. Further, in [8], the GI50 is 5.14 µM. The TGI is above 100 µM in test [1]; above 100 µM in test [9]; 3.99 µM in test [3]; above 100 µM in test [5]; above 100 µM in test [6]; above 100 µM in [7]. This molecule had a TGI in test [8] above 100 µM.

On to `O=c1c2cc(Br)cc(Br)c2nc(CCCl)n1CCO`, for which the TGI is above 100 µM in test [1]; above 100 µM in [2]; 93.5 µM in [3]; above 100 µM in [4]; above 100 µM in test [6]; above 100 µM in test [7]. In addition, in [8], the TGI was above 100 µM.

As to `C/C(CC(=O)NCCc1ccccc1)=N\NC(=O)C[n+]1ccccc1`, the TGI in test [1], in test [2], in [3], in test [4], in [6] and in [7] was above 100 µM throughout. Also, the TGI in test [8] is above 100 µM.

With `O=C1/C(=C/c2cccc([N+](=O)[O-])c2)COc2ccc(Br)cc21`, the TGI in test [2], in test [3], in [4], in test [6], in test [7] and in test [8] was above 100 µM each time.

For the molecule `NC(=O)NCc1c(C(N)=O)ncn1Cc1ccccc1`, the TGI in test [1], in test [2], in test [3], in [5], in [6] and in test [7] was above 100 µM each time.

In the case of `O=C1[C@@H]2C(c3ccccc3F)=NO[C@@H]2C(=O)N1c1ccc(Cc2ccc(N3C(=O)[C@H]4C(c5ccccc5F)=NO[C@H]4C3=O)cc2)cc1`, the TGI in test [1] is above 100 µM; in test [2], above 81.3 µM; in test [3], above 100 µM; in test [4], above 100 µM; in [5], above 100 µM; in [6] it was above 100 µM. For the same molecule, the TGI in test [7] and in test [8] was above 100 µM throughout.

Take `O=C(O)[C@H](NS(=O)(=O)c1ccc([N+](=O)[O-])cc1)c1ccccc1`: the TGI in [1], in test [2], in [3], in [4], in test [5] and in test [6] was above 100 µM in each case. The TGI in test [7] and in test [8] was above 100 µM in each case.

Regarding `CSC(C1c2ccccc2N(c2ccc(C)cc2)c2[nH]c(=O)n(C)c(=O)c21)S(=O)(=O)c1ccc(C)cc1` (stereo not given), the TGI in test [1], in test [3], in [4], in [5], in test [6] and in test [7] was above 100 µM each time. The molecule also came in with a TGI in test [8] above 100 µM.

`O=C1CCC(O)=C1N=Nc1ccccc1`: the TGI is 74.1 µM in [1]; above 100 µM in test [2]; above 100 µM in test [3]; above 100 µM in test [5]; above 100 µM in test [6]; above 100 µM in test [7]. For the same molecule, the TGI in [8] was above 100 µM.

Turning to `CN(C)c1cc[c]([Sn]([c]2ccc(N(C)C)cc2)([c]2ccc(N(C)C)cc2)[c]2ccc(N(C)C)cc2)cc1`, the GI50 in test [1] is 3.68 µM; in test [3], 4.36 µM; in [5], 10.7 µM; in test [6] it was 2.89 µM; in test [7] it was 13.8 µM; in [8] it was 6.83 µM. Moreover, the TGI in test [1] is 17.4 µM; in test [3] it was 17.2 µM; in test [5], 23 µM; in test [7], 37.5 µM; in [8], 29.3 µM.

For the molecule `c1ccc(C2Nc3ccccc3C3OCCCC23)cc1` (stereo not given), the TGI in [1] was 58.5 µM; in [2], 50.4 µM; in test [5], above 100 µM; in test [6], 35.3 µM; in [7] it was above 100 µM; in test [8], 82.2 µM.

With `O=C(Nc1c(Cl)cc([N+](=O)[O-])cc1Cl)C(=O)C(C1OC(=O)c2ccccc21)[N+](=O)[O-]` (stereo not given), the TGI in [1], in [2], in test [3], in test [5], in [6] and in test [7] was above 100 µM in each case. Further, the TGI in test [8] is above 100 µM.

Regarding `COc1ccc(CCN2COc3c([C@@H](C)CCC=C(C)C)ccc(C)c3C2)cc1OC`, the GI50 is 3.48 µM in test [1]; 1.73 µM in test [2]; 2.76 µM in [9]; 12.5 µM in test [3]; 12.1 µM in [5]; 1.77 µM in test [6]. In addition, the GI50 in test [7] is 10.3 µM; in [8], 1.88 µM. For the same molecule, the TGI in [1] came to 14.6 µM; in [2], 4.85 µM; in [9], 9.37 µM; in test [3], 35.4 µM; in test [5] it was 42.8 µM; in test [6] it was 3.75 µM. The TGI in test [7] came out at 31.5 µM; in test [8], 3.82 µM.

As to `Cc1c(C(=O)/C=C/c2ccccc2)[n+](=O)c2ccccc2n1[O-]`, the TGI in test [1] came out at 28.6 µM; in test [2], 20.9 µM; in test [3], 64.7 µM; in test [4], 19.4 µM; in [5] it was 31.8 µM; in [6], 28.3 µM. This molecule showed a TGI in test [7] of 43.2 µM.

`N#CC1CC2(C1)OCCS2` (stereo not given): the TGI in test [1], in test [2], in test [3], in test [4], in [5] and in test [6] was above 100 µM in each case. Moreover, the TGI in [7] and in test [8] was above 100 µM throughout.

In the case of `Cn1c2ccccc2c(=O)c2ccc(Cl)cc21`, the TGI was above 10 µM in [1]; above 10 µM in test [2]; above 10 µM in test [3]; 4 µM in [5]; above 10 µM in [6]; above 10 µM in test [7]. Further, the TGI in test [8] is above 10 µM.

As for `S=C1OC2CCCC[C@H]2O1` (stereo not given in full), the TGI in [1], in test [2], in test [3], in test [4], in test [5] and in test [6] was above 100 µM in each case. Also, the TGI in test [7] and in [8] was above 100 µM throughout.

In the case of `CCCCCCCCCCCC(=O)OCC1OC(OC)C(NC(=O)N(CCCl)N=O)C(O)C1O` (stereo not given), the TGI in test [1] was 15.7 µM; in test [2], 26.4 µM; in test [3], 52.8 µM; in [4] it was 24.7 µM; in test [5] it was above 100 µM; in test [6] it was 21.6 µM. Further, the TGI in [7] worked out at 36.8 µM; in [8] it was 54.5 µM.

For the molecule `N#Cc1cccnc1Cl`, the TGI in [1], in test [2], in test [3], in [4], in test [5] and in test [6] was above 100 µM in each case. In addition, the TGI in [7] and in test [8] was above 100 µM throughout.

Turning to `O=C1CC2CCCC23CC2(CCN13)OCCO2` (stereo not given), the TGI in test [1], in test [2], in [3], in test [4], in test [5] and in test [6] was above 100 µM each time. Besides, the TGI in [7] and in test [8] was above 100 µM each time.

For `O=C(NCO)NCOCn1c(=O)n(CO)c(=O)n(CO)c1=O`, the TGI in test [1] was 36.8 µM; in test [2], 30.8 µM; in [3], above 100 µM; in [5], above 31.6 µM; in [6] it was 37.3 µM; in test [7], above 100 µM. For the same molecule, the TGI in test [8] was found to be 33.8 µM.

In the case of `O=C1CC2c3ccccc3CCC2c2ccccc21` (stereo not given), the TGI was 69.6 µM in [1]; 80 µM in test [9]; above 100 µM in test [3]; 46.7 µM in test [4]; above 100 µM in test [5]; 34.3 µM in test [6]. Besides, the results for the TGI in [7] and in test [8] were above 100 µM and 35.9 µM, respectively.

As for `O=C(c1ccccc1)C1OC12C(=O)Nc1ccccc12` (stereo not given), the TGI in test [1] is above 100 µM; in test [2], 54.7 µM; in test [3], 42.2 µM; in [4], 28.2 µM; in [5], above 100 µM; in [6] it was above 100 µM. Further, the TGI in test [7] and in test [8] was above 100 µM throughout.

For `CCCSc1nc(COC(=O)NC)c(COC(=O)NC)n1C`, the TGI in [1] was above 100 µM; in test [2] it was above 100 µM; in test [3] it was above 100 µM; in test [4] it was 45.1 µM and > 100 µM; in test [5] it was above 100 µM; in [6], above 100 µM. For the same molecule, the TGI in [7] and in [8] was above 100 µM each time. For the same molecule, in [4], the GI50 is 22.1 µM and 55.5 µM.

For the molecule `COc1ccc(OC)c2c(C(=O)O)c(Cc3ccccc3)ccc12`, the TGI in [1], in test [2], in [3], in [4], in test [5] and in test [6] was above 100 µM throughout. The TGI in test [7] and in [8] was above 100 µM each time.

As for `C1C[OH+]CC[OH+]CC[OH+]CC[OH+]CC[OH+]1.[Cl-].[V]`, the GI50 was 31.5 µM in test [1]; 18.1 µM in test [2]; 16.2 µM in test [3]; above 100 µM in [4]; 43.5 µM in test [5]; 30.6 µM in test [6]. Besides, the values for the GI50 in [7] and in test [8] were 61.1 µM and 48.2 µM, respectively. For the same molecule, the TGI in [1] was above 100 µM; in test [2], 36.9 µM; in test [3] it was 41.2 µM; in [4], above 100 µM; in test [5], above 100 µM; in [6] it was above 100 µM. Further, the TGI in test [7] and in [8] was above 100 µM throughout.

For the molecule `CCOC(=O)NC(=O)c1cn(CCCOC(=O)CCCCCCCCCCC(=O)OCCCn2cc(C(=O)NC(=O)OCC)c(=O)[nH]c2=O)c(=O)[nH]c1=O`, the TGI in test [1], in [5], in [6], in test [7] and in test [8] was above 100 µM in each case.

These data come from PubChem BioAssay (NCI).
